How the values were obtained:
DPP-IV = target: T1, DPP-IV (Homo sapiens, UniProt P27487); assay: DPP-IV assay with extract of the human colon carcinoma cell line Caco-2 as DPP IV source, AFC substrate, fluorescence; assay type: biochemical; conditions: solubilised Caco-2 protein, substrate 100 μM, 60 minutes at ambient temperature, 11-point curves; read-out: DPP IV inhibition IC50
T1 construct: an extract of the human colon carcinoma cell line Caco-2 is used as the DPP IV source; endogenous in cells; host or cells: Caco-2 (human colon carcinoma), differentiated to induce DPP-IV expression; Nonidet-P40 solubilised extract
Procedure: The differentiation of the cells in order to induce the DPP-IV expression was carried out in accordance with the description by Reiher et al. in an article entitled “Increased expression of intestinal cell line Caco-2”, which appeared in Proc. Natl. Acad. Sci. Vol. 90, pp. 5757-5761 (1993).
The cell extract was obtained from cells solubilised in a buffer (10 mM Tris HCl, 0.15 M NaCl, 0.04 t.i.u. aprotinin, 0.5% Nonidet-P40, pH 8.0) by centrifugation at 35,000 g for 30 minutes at 4° C. (to remove cell debris).
The DPP-IV assay was carried out as follows:
50 μl of substrate solution (AFC; AFC is amido-4-trifluoromethylcoumarin), final concentration 100 μM, were placed in black microtitre plates. 20 μl of assay buffer (final concentrations 50 mM Tris HCl, pH 7.8, 50 mM NaCl, 1% DMSO) was pipetted in. The reaction was started by the addition of 30 μl of solubilised Caco-2 protein (final concentration 0.14 μg of protein per well). The test substances under investigation were typically added prediluted to 20 μl, while the volume of assay buffer was then reduced accordingly. The reaction was carried out at ambient temperature, the incubation period was 60 minutes. Then the fluorescence was measured in a Victor 1420 Multilabel Counter, with the excitation wavelength at 405 nm and the emission wavelength at 535 nm. Dummy values (corresponding to 0% activity) were obtained in mixtures with no Caco-2 protein (volume replaced by assay buffer), control values (corresponding to 100% activity) were obtained in mixtures without any added substance. The potencies of the test substances in question, expressed as IC50 values, were calculated from dosage/activity curves consisting of 11 measured points in each case.

[1] = Tolerability after oral administration; assay type: in vivo; conditions: oral administration of 10 mg/kg

T1 sequence (P27487 whole entry): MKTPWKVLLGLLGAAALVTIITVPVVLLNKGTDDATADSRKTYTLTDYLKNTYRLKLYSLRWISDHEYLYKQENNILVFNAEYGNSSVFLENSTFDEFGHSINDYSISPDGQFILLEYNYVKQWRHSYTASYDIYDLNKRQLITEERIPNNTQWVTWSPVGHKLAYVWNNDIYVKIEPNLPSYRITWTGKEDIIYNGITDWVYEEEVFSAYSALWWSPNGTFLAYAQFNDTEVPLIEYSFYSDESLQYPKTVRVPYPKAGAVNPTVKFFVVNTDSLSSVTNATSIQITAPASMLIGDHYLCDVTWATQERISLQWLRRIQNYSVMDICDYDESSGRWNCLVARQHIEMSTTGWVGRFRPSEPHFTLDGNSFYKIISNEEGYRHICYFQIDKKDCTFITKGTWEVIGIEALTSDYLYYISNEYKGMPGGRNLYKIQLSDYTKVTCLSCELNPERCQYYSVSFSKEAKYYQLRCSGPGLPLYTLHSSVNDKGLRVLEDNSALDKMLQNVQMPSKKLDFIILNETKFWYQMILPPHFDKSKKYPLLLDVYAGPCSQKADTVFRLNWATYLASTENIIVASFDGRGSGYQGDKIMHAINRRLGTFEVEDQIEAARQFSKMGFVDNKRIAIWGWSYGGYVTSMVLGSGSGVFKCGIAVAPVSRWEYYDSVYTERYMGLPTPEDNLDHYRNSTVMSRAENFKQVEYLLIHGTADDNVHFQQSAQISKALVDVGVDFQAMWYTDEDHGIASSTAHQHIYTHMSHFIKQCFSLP

Compound	IC50 (DPP-IV) [nM]	toxic side effects / tolerability [1]
CC#CCn1c(N(C)CCN)nc2cnn(Cc3nc(C)c4ccccc4n3)c(=O)c21 [Example 1, 2-[N-(2-aminoethyl)-N-methyl-amino]-3-(2-butyn-1-yl)-5-[(4-methyl-quinazolin-2-yl)methyl]-3,5-dihydro-imidazo[4,5-d]pyridazin-4-one]	1	no toxic side effects
CC#CCn1c(N(C)CCN)nc2cnn(Cc3nc(C)cc4ccccc34)c(=O)c21 [1(1), 2-[N-(2-aminoethyl)-N-methyl-amino]-3-(2-butyn-1-yl)-5-[(3-methyl-isoquinolin-1-yl)methyl]-3,5-dihydro-imidazo[4,5-d]pyridazin-4-one]	10	–
CC#CCn1c(N(C)CCN)nc2ccn(Cc3nc(C)cc4ccccc34)c(=O)c21 [1(2), 2-[N-(2-aminoethyl)-N-methyl-amino]-3-(2-butyn-1-yl)-5-[(3-methyl-isoquinolin-1-yl)methyl]-3,5-dihydro-imidazo[4,5-c]pyridin-4-one]	34	–

Second part, led by results:

IC50 (DPP-IV) [nM]	Compound	toxic side effects / tolerability [1]
336	CC#CCn1c(N(C)CC(C)(C)N)nc2cnn(Cc3ccccc3C#N)c(=O)c21 [2(1), 2-[N-(2-amino-2-methyl-propyl)-N-methyl-amino]-3-(2-butyn-1-yl)-5-(2-cyanophenyl-methyl)-3,5-dihydro-imidazo[4,5-d]pyridazin-4-one]	–
76	CC#CCn1c(N(C)C[C@H](C)N)nc2cnn(Cc3ccccc3C#N)c(=O)c21 [Example 2, (S)-2-[N-(2-amino-propyl)-N-methyl-amino]-3-(2-butyn-1-yl)-5-(2-cyanophenylmethyl)-3,5-dihydro-imidazo[4,5-d]pyridazin-4-one]	–
2	CC#CCn1c(N(C)C[C@H](C)N)nc2cnn(Cc3nc(C)c4ccccc4n3)c(=O)c21 [Example 3, (S)-2-[N-(2-aminopropyl)-N-methyl-amino]-3-(2-butyn-1-yl)-5-[(4-methyl-quinazolin-2-yl)methyl]-3,5-dihydro-imidazo[4,5-d]pyridazin-4-one]	–

Source: patent US7476671B2, “2-amino-imidazo[4,5-d]pyridazin-4-ones, their preparation and their use as pharmaceutical compositions” (Boehringer Ingelheim International GmbH, priority 2004, dated 2009)
